Laboratory results: publication PMC11758220, “Identification of a Privileged Scaffold for Inhibition of Sterol Transport Proteins through the Synthesis and Ring Distortion of Diverse, Pseudo-Natural Products” (ACS Central Science, 2025)

Columns and labels:
STARD1 = molecular target: T1, STARD1 (Homo sapiens, UniProt P49675); assay: Fluorescence polarisation (FP) competition with NBD-cholesterol, STARD1; assay type: binding; conditions: single dose, Dose = 10 µM
T1 construct: STARD1(66-284); made in house; host or cells: E. coli BL21(DE3)
T1 sequence (P49675 66-284): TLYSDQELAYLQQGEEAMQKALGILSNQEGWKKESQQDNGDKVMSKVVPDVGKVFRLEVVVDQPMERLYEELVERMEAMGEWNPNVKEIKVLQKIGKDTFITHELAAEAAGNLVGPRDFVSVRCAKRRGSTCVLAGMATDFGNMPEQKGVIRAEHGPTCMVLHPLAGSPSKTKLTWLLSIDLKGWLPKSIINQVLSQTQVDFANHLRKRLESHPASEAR

ORP2 = molecular target: T2, ORP2 (Homo sapiens, UniProt Q9H1P3); assay: Fluorescence polarisation (FP) competition with NBD-cholesterol, ORP2; assay type: binding; conditions: for IC50: mean of three experiments run in technical duplicates
T2 construct: ORP2(49-480); host or cells: E. coli BL21(DE3)
T2 sequence (Q9H1P3 49-480): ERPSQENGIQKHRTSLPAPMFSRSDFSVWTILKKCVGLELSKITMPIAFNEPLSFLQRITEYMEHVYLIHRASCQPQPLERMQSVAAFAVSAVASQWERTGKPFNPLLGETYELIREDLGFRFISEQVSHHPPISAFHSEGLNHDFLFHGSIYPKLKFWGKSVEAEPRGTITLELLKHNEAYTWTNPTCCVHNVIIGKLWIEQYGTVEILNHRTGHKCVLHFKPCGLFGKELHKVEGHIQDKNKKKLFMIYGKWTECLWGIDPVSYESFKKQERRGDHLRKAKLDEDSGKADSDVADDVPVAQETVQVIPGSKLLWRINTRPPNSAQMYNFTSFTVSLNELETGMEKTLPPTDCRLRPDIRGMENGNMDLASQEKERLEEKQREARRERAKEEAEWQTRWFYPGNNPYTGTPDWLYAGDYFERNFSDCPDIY
From the text: Protein expression constructs
Human ASTER domains of Aster-A(359-547), -B(364-552) and -C(318-504) were subcloned into a pGEX-6p-2rbs vector, thus introducing the cloning artifact ‘GPLGS’.3 The pGEX-6P-1-GST-OSBP(377- […]
a gift from James H. Hurley (University of California).4 The pHIS_2His6_Thrombin_STARD4(2-205;C75S) plasmid was a gift from Young Jun Im (Chonnam National University).5 STARD5A was a gift from Nicola Burgess-Brown (Addgene plasmid #42392; http://n2t.net/addgene:42392; […]
Protein expression and purification […]
vectors including an N-terminal PreScission-cleavable glutathione S-transferase (GST)-tag were expressed in Escherichia coli (E. coli) OverExpress C41 in Terrific Broth (TB) medium for 16 h at 18 °C after the induction with 0.1 mM isopropyl β-D-1-thiogalactopyranoside (IPTG). Cells were harvested at 3500 × g for 15 minutes and lysed by sonication in buffer containing 50 mM HEPES pH 7.5, 300 mM NaCl, 10 %v/v glycerol, 5 mM dithiothreitol (DTT), 0.1 %v/v Triton X-100 and protease inhibitor mix HP plus (Serva). The lysate was purified by affinity chromatography on a GSTrap FF column (Cytiva) using an ÄKTA Start (Cytiva) in buffer containing 50 mM HEPES pH 7.5, 300 mM NaCl, 10 %v/v glycerol, 5 mM DTT and 0.01 %v/v Triton X-100. The GST-tag was cleaved overnight on the column at 4 °C. The Aster sterol binding domains were further purified by size-exclusion chromatography (SEC) on a HiLoad 16/600 Superdex 75 pg (Cytiva) in buffer containing 20 mM HEPES pH 7.5, 300 mM NaCl, 10 %v/v […]
STARD5(6-213) harboring an N-terminal His6-Tag were expressed in E. coli BL21(DE3) in Luria-Bertani Broth (LB) medium for approximately 16 h at 18 °C after induction with 0.15 mM IPTG. Cells were harvested at 3500 × g for 15 minutes and lysed by sonication in buffer containing 50 mM HEPES pH 7.5, 150 mM NaCl, 5 %v/v glycerol, 5 mM DTT, 0.1 %v/v Triton X -100 and ethylenediaminetetraacetic acid (EDTA)-free protease inhibitor cocktail (Sigma-Aldrich). The cleared lysate was purified by affinity chromatography on a Ni-NTA Superflow Cartridge (Qiagen) using an ÄKTA Start (Cytiva) in buffer containing 50 mM HEPES pH 7.5, 150 mM NaCl, 5 %v/v glycerol, 5 mM DTT. START domains were eluted by using elution buffer containing 50 mM HEPES pH 7.5, 150 mM NaCl, 5 %v/v glycerol, 5 mM DTT and 500 mM imidazole. Proteins were further purified by SEC on a HiLoad 16/600 Superdex 75 pg (Cytiva) in buffer containing 20 mM HEPES pH 7.5, 150 mM NaCl, 5 %v/v glycerol and 2 mM DTT.
The ORP domain of human OSBP(377-807) in the pGEX-6p-1 vector with an N-terminal PreScission-cleavable GST-tag was expressed in E. coli OverExpress C41 in LB medium for 16 h at 18 °C after induction with 0.1 mM IPTG. Cells were harvested at 3500 × g for 15 minutes and lysed by sonication in buffer containing 20 mM HEPES pH 7.5, 300 mM NaCl, 10 %v/v glycerol, 5 mM DTT, 0.1 %v/v Triton X-100 and EDTA-free protease inhibitor cocktail (Sigma-Aldrich). The cleared lysate was purified by affinity chromatography on a GSTrap HF column (Cytiva) using an ÄKTA Start (Cytiva) in buffer containing 20 mM HEPES pH 7.5, 300 mM NaCl, 10 %v/v glycerol, 5 mM DTT. OSBP(377 -807) was eluted by using elution buffer containing 20 mM HEPES pH 7.5, 300 mM NaCl, 10 %v/v glycerol, 5 mM DTT and 10 mM reduced glutathione. Proteins were further purified by SEC on a HiLoad 16/600 Superdex 75 pg (Cytiva) using an ÄKTA Explorer (Cytiva) in buffer containing 20 mM HEPES pH 7.5, 150 mM NaCl, 10 %v/v glycerol and 2 mM DTT.
The ORP domains of human ORP1(534-950) in pET24b(+) and ORP2(49-480) in the pET24b(+) vector including an N-terminal His6-Tag were expressed in E. coli BL21(DE3) in TB medium for approximately 16 h at 18 °C after induction with 0.1 mM IPTG. Cells were collected at 3500 × g for 15 minutes and lysed by sonification in buffer containing 10 mM Tris-HCl pH 8, 300 mM NaCl, 5 % glycerol, 2 mM DTT, 0.1 % Triton X-100 and EDTA-free protease inhibitor cocktail (Sigma-Aldrich). The cleared […]

Row | Structure (SMILES) | inhibition at 10 µM (STARD1) | IC50 (ORP2) | inhibition at 10 µM (ORP2; single dose, Dose = 10 µM) | STARD1 (FP) inhibition (STARD1) | ORP2 (FP) inhibition (ORP2; single dose, Dose = 10 µM)
1 | CCCCCNc1ccc2c(c1)[C@@]13CC[C@@H]4C[C@@H](CC[C@@]41C)OC3=N2 [Compound 19c] | 28% | > 80 µM | 38% |  | 
2 | C[C@]12CC[C@@H](O)C[C@H]1CCC(=O)c1cc(C(F)(F)F)ccc1NC2=O [Compound 11e] | 10% |  | 5% |  | 
3 | C[C@]12CC[C@@H](O)C[C@H]1CCc1c2[nH]c2ccc(I)cc12 [Compound 10h] |  |  |  | 15% | 63.5%
4 | C[C@]12CC[C@@H]3C[C@H]1CC[C@@]21C(=Nc2ccc(N4CCN(Cc5ccncc5)CC4)cc21)O3 [Compound 24] | 5% |  | 27% |  | 
5 | Cc1ccc2c(c1)[C@]1(O)CC[C@@H]3C[C@H](O)CC[C@]3(C)C1=N2 [Compound 14a] | 17% |  | 53% |  | 
6 | CC12CCC3CC1CCC21C(=Nc2c(Br)cc(C(F)(F)F)cc21)O3 (stereo not shown) [Compound 15h] | 17% | 9.6 µM | 49% |  | 
7 | Cc1ccc2c(c1)C(=O)CC[C@@H]1C[C@H](O)CC[C@]1(C)C(=O)N2 [Compound 11c] | 25% |  | -1% |  | 
